For one assay, the target named is T1, COX-1 (Mus musculus, UniProt P22437).
T1 sequence (P22437 1-602): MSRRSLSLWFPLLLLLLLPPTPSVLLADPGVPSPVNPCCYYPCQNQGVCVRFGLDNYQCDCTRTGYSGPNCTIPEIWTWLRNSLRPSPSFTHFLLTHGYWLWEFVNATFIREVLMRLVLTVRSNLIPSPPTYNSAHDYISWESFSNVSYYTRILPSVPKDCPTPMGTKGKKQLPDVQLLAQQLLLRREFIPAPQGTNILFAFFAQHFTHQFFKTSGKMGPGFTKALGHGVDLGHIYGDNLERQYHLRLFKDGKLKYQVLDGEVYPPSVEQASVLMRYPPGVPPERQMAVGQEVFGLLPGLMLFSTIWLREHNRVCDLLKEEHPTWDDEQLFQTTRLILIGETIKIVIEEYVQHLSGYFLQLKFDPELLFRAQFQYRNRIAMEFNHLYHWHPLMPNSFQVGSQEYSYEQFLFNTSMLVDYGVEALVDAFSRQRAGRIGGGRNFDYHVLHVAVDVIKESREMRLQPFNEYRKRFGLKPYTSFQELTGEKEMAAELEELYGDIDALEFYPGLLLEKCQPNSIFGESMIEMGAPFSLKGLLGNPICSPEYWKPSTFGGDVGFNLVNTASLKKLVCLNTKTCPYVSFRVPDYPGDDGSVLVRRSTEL
Put plainly: Macrophage assay (RAW264.7), COX-1. The assay is classed as cell-based, murine. The text has this:
(§1) Thus, NSAID derivatives that are identified as potentially useful in the methods described herein can be further tested using, for example, the RAW264.7 murine macrophage cell line. These cells are readily available (for example, from the American Type Culture Collection (ATCC), Manassas, Va., United States of America) and are easily cultured in large numbers. They normally express low levels of COX-1 and very low to undetectable levels of COX-2. Upon exposure to bacterial lipopolysaccharide (LPS), however, COX-2 levels increase dramatically over the ensuing 24 hour period, and the cells produce PGD2 and PGE2 from endogenous arachidonic acid stores (generally, ˜1 nmol/10^7 cells total PG formation). After LPS exposure, the addition of exogenous arachidonic acid results in the formation of additional PGD2 and PGE2 as a result of metabolism by the newly synthesized COX-2.
(§2) This system provides a number of approaches for testing the inhibitory potency of COX-2-selective ligands (e.g., inhibitors). In general, following LPS activation, cells can be treated for 30 minutes with the desired concentrations of candidate derivative(s) in DMSO. ^14C-arachidonic acid can be added, and the cells can be incubated for 15 minutes at 37° C. Product formation can be assessed following extraction and TLC separation of the culture medium. Alternatively, the effects of candidate derivatives on PG synthesis from endogenous arachidonic acid can be assessed by incubating cells with desired concentrations of candidate derivatives 30 minutes prior to LPS exposure. Following a 24-hour incubation, medium can be collected and extracted, and the amount of PGD2 and/or PGE2 can be assayed by gas chromatography-mass spectrometry, liquid chromatography-mass spectrometry, or ELISA.

A further assay concerns the target T2, COX-2 (Mus musculus, UniProt Q05769).
T2 construct: metabolism by the newly synthesized COX-2; endogenous in cells
T2 sequence (Q05769 18-604): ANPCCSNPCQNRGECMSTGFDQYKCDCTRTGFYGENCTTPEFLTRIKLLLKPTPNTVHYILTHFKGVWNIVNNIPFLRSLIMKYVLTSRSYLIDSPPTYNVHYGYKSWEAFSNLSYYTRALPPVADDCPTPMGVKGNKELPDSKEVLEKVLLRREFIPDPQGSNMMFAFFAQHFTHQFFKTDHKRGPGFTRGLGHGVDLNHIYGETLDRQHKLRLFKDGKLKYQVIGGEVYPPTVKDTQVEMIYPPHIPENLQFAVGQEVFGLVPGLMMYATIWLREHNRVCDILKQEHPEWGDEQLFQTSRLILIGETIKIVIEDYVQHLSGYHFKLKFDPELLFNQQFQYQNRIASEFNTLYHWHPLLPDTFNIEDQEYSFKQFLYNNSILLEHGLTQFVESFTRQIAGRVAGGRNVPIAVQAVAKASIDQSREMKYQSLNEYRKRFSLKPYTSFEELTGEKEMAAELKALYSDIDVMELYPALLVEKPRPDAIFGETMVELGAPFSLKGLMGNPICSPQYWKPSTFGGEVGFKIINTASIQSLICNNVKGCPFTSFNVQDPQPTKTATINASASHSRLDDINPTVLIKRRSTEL
Kind of assay: Macrophage assay (RAW264.7), COX-2. The assay is classed as cell-based, murine.
Source text: as §1, §2

Assay [1] has as its system COX-2-transformed HEK293 cells. Kind of assay: In vitro cell imaging, HEK293 cells expressing human COX-2. It is filed as cell-based. The following applies: HEK293/COX-2; for fluorescent staining of cells: 200 nM; for fluorescent staining after indomethacin pretreatment: indomethacin (20 μM) pretreatment. As for the experimental part: A second experimental design employed HEK293 cells (a cell line generated by transformation of human embryonic kidney cell cultures with adenovirus) that had been transformed with an expression construct encoding a constitutively active human COX-2. For imaging experiments, cells were also plated on 35 mm culture dishes (MatTek Corp., Ashland, Mass., United States of America) with glass coverslips and grown to 70% confluency in DMEM plus 20% FBS. When the appropriate confluency was reached (approximately 48 hours after plating), the medium was replaced with DMEM/1% FBS and exposed to 200 nM Compound 27vv or Compound 27ww as described hereinabove. After 30 minutes, the cells were washed briefly 3 times and incubated in DMEM/10% FBS for 60 minutes at 37° C. After 60 minutes, the medium was removed and the cells were washed with HBSS/Tyrode's. After the second wash, fresh HBSS/Tyrode's was added and the cells were immediately imaged using a Zeiss Axiovert 25 Microscope (propidium iodide filter/3 sec exposure/gain of 3).

Another assay concerns RAW264.7 cells. Kind of assay: In vitro cell imaging, LPS/IFNγ-activated RAW264.7 cells. It is filed as cell-based, mouse. The note with it: for fluorescence imaging of cells: 200 nM, 30 minutes, LPS-activated RAW264.7; for fluorescent signal after indomethacin pretreatment: indomethacin (20 μM) pretreatment, RAW264.7. As for the experimental part: RAW264.7 cells (a line established from a tumor induced in a mouse by Abelson murine leukemia virus and available from the American Type Culture Collection, Manassas, Va., United States of America) were grown overnight on 35 mm culture dishes (MatTek Corp., Ashland, Mass., United States of America) with glass coverslips in Dulbecco's Modified Eagle Medium (DMEM) plus 10% heat-inactivated fetal bovine serum (FBS). Platings of cells were done in order to reach 30% confluency the next day. After overnight growth, the growth medium was replaced with 2 ml serum-free DMEM per dish. Individual dishes then received 200 ng/ml LPS plus 10 units/ml murine IFNγ (Roche Applied Science, Indianapolis, Ind., United States of America) for 6 hours to induce COX-2. […] After 30 minutes, the cells were washed briefly three times in medium and incubated in Hank's balanced salt solution (HBSS)/Tyrode's for 60 minutes at 37° C. After 60 minutes, the HBSS/Tyrode's was removed and fresh HBSS/Tyrode's was added. The cells were immediately imaged using a Zeiss Axiovert 25 Microscope (propidium iodide filter/2-3 sec exposure/gain of 2).

Assay [2] deals with 1483 Head/Neck Squamous Cell Carcinoma Cells. Put plainly: In vitro cell imaging, 1483 Head/Neck Squamous Cell Carcinoma Cells. The assay is classed as cell-based. The note with it: 1483 cells.
The mark [3] stands for this setting: Table 3, macrophage assay, read-out: IC50 COX-2.

“Also recorded” adds a separate entry of the source. Read-outs that look alike come from different tables or passages of the source. A value given as a limit tells only on which side of the number the result lay.

In general, IC50 refers to the concentration that gives 50% inhibition. For `COc1ccc2c(c1)c(CC(=O)NCCNS(=O)(=O)c1ccc(/N=N/c3ccc(N(C)C)cc3)cc1)c(C)n2C(=O)c1ccc(Cl)cc1` [Compound 27aa, N-(2-Dabsylaminoethyl)-2-{1-(4-chlorobenzoyl)-5-methoxy-2-methyl-1H-indol-3-yl}acetamide], the concentration for half-maximal inhibition (IC50) against COX-1 (Table 3, macrophage assay) was more than 2.5e-06 M; on COX-2 (setting [3]), 1.8e-07 M.

As to `COc1ccc2c(c1)c(CC(=O)NCCCCNC(=O)c1ccc(C3=c4cc5c6c(c4Oc4c3cc3c7c4CCCN7CCC3)CCC[N+]=6CCC5)c(C(=O)[O-])c1)c(C)n2C(=O)c1ccc(Cl)cc1` [Compound 27eee], the “fluorescent staining of cells” value is “good specific staining; also recorded: fluorescence above the level observed in control HEK293 cells” in assay [1] and “good specific staining; also recorded: considerable fluorescence” in assay [2] (200 nM). The “fluorescent staining after indomethacin pretreatment” value in assay [1] and in assay [2] (indomethacin pretreatment) was “reducible by pretreatment with indomethacin” in each case. Also, the IC50 at COX-1 (Table 3, macrophage assay) was more than 5e-06 M; at COX-2 (read-out: IC50 in RAW 264.7 cells), 3.2e-07 M. For the same compound, the “fluorescence imaging of cells” value in the assay with RAW264.7 cells was “good specific staining; also recorded: consistent fluorescent signals over control cells”. Also, the “fluorescent signal after indomethacin pretreatment” value with RAW264.7 cells is listed as “reducible by pretreatment with indomethacin”.

In the case of `COc1ccc2c(c1)c(CC(=O)NCCCCNC(=O)Cc1ccc(Nc3ccc([N+](=O)[O-])c4nonc34)cc1)c(C)n2C(=O)c1ccc(Cl)cc1` [Compound 27ii, N-([2-{4-(7-nitrobenzo[1,2,5]oxadiazol-4-ylamino)phenyl}acetamido]but-4-yl)-2-{1-(4-chlorobenzoyl)-5-methoxy-2-methyl-1H-indol-3-yl]acetamide], the IC50 is more than 1e-05 M against COX-1 (Table 3, macrophage assay) and 5.7e-07 M on COX-2 (setting [3]).

For `COc1ccc2c(c1)c(CC(=O)NCCCCNC(=O)c1ccc(C(=O)O)c(-c3c4ccc(=O)cc-4oc4cc(O)ccc34)c1)c(C)n2C(=O)c1ccc(Cl)cc1` [Compound 27qq, N-[(Fluorescein-6-carboxylamido)but-4-yl]-2-[1-(4-chlorobenzoyl)-5-methoxy-2-methyl-1H-indol-3-yl)acetamide], the IC50 was more than 5e-06 M against COX-1 (Table 3, macrophage assay) and 1.88e-07 M on COX-2 (setting [3]).

For the compound `CC[N+](CC)=c1ccc2c(-c3ccccc3)c(C)c(/C=C/C=C3/N(CCCCCC(=O)NCCCCNC(=O)Cc4c(C)n(C(=O)c5ccc(Cl)cc5)c5ccc(OC)cc45)c4ccc(S(=O)(=O)[O-])cc4C3(C)C)oc-2c1` [Compound 27ttt], the IC50 was more than 5e-06 M at COX-1 (Table 3, macrophage assay) and 8.9e-07 M at COX-2 (setting [3]).

With `CC[N+](CC)=c1ccc2nc3c(cc(NC(=O)CCOCCOCCOCCOCCNC(=O)Cc4c(C)n(C(=O)c5ccc(Cl)cc5)c5ccc(OC)cc45)c4ccccc43)oc-2c1` [Compound 27uu, N-[5-)1-{1-(4-chlorobenzoyl)-5-methoxy-2-methyl-1H-indol-3-yl}-2-6,9,12,15-tetraoxa-3-azaoctadecanamido]-9H-benzo[a]penoxazin-9-ylidene)-N-ethylethanaminium perchlorate], the IC50 at COX-1 (Table 3, macrophage assay) is more than 2.5e-05 M; on COX-2 (setting [3]) it was 8.5e-08 M.

As for `COc1ccc2c(c1)c(CC(=O)NCCCCNC(=O)c1ccc(C(=O)[O-])c(C3=c4cc5c6c(c4Oc4c3cc3c7c4CCCN7CCC3)CCC[N+]=6CCC5)c1)c(C)n2C(=O)c1ccc(Cl)cc1` [Compound 27vv], in assay [1], the “fluorescent staining of cells” value is reported as “clearly observable fluorescent staining; also recorded: fluorescence above the level observed in control HEK293 cells” and the “fluorescent staining after indomethacin pretreatment” value is reported as “reduced”. Also, at COX-1 (Table 3, macrophage assay), the IC50 was more than 5e-06 M. In addition, in the assay with RAW264.7 cells, the “fluorescence imaging of cells” value is “LPS activation enhanced imaging; also recorded: consistent fluorescent signals over control cells” and the “fluorescent signal after indomethacin pretreatment” value is “reduced the fluorescent signal”.

For `COc1ccc2c(c1)c(CC(=O)NCCNS(=O)(=O)c1cccc3c(N(C)C)cccc13)c(C)n2C(=O)c1ccc(Cl)cc1` [Compound 27x], the IC50 is more than 1e-06 M at COX-1 (Table 3, macrophage assay) and 3e-08 M on COX-2 (setting [3]).

With `COC(=O)c1cc(-c2ccc(C)cc2)n(-c2ccc(S(N)(=O)=O)cc2)n1` [Compound 30b], the IC50 was more than 5e-06 M against COX-1 (Table 2, macrophage assay (M)) and 1.1e-07 M on COX-2 (Table 2, macrophage assay (M), read-out: IC50 COX-2).

The values above are taken from patent publication US7736624B2, “Methods and compositions for diagnostic and therapeutic targeting of COX-2” (priority 2006, dated 2010).
